Among the data in patent US20190119282A1, “IMIDAZOPYRIDAZINES USEFUL AS INHIBITORS OF THE PAR-2 SIGNALING PATHWAY” (Vertex Pharmaceuticals Incorporated, priority 2013, published 2019) are IC50 values, retold here.

A value given as a limit tells only on which side of the number the result lay.

The test system of test [1] is Thrombin-stimulated Ca2+ response in HT-29 cells. Nature of the test: Ca FLIPR TETRA assay, ANTAGONIST mode, stimulation with 1 U/mL Thrombin. It is filed as cell-based, human. As to conditions: Homo sapiens; HT-29 cells, antagonist mode, stimulation with 1 U/mL Thrombin. In short, it runs like this: (§1)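 Antagonist-mode FLIPR Tetra Ca2+ readout: after 30 min r.t. compound pre-incubation, HT-29 cells are challenged with trypsin (3.1 U/mL final), SLIGKV (8 μM), thrombin (1 U/mL) or UTP (0.6 μM). Cells were plated overnight in 1% FBS medium and dye-loaded with Calcium 5; an initial read checks compound agonism.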

For test [2], the system named is UTP-stimulated Ca2+ response in HT-29 cells. The experiment in a line: Ca FLIPR TETRA assay, ANTAGONIST mode, stimulation with 0.6 μM UTP. It is filed as cell-based, human. As to conditions: Homo sapiens; HT-29 cells, antagonist mode, stimulation with 0.6 μM UTP. The method, boiled down: as §1
The target of test [3] is T1, PAR2 (HT-29 cells, trypsin activation) (Homo sapiens, UniProt P55085).
T1 construct: host or cells: HT-29 cells
T1 sequence (P55085 26-397): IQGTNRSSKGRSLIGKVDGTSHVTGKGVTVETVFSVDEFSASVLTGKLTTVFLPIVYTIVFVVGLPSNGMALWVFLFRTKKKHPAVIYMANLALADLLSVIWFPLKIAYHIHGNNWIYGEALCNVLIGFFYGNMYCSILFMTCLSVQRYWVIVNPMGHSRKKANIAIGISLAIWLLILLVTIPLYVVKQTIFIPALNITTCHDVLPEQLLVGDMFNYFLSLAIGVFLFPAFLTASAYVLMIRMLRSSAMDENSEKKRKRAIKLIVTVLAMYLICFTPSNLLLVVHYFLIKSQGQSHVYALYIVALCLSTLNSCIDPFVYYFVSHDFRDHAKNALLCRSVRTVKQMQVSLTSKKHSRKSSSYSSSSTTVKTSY
Nature of the test: Ca FLIPR TETRA assay, ANTAGONIST mode, stimulation with 3.1 U/mL trypsin. It is filed as cell-based. To be noted: HT-29 cells, antagonist mode, stimulation with 3.1 U/mL trypsin. In short, it runs like this:
as §1

Test [4] has as its target T2, PAR2 (HT-29 cells, SLIGKV activation) (Homo sapiens, UniProt P55085).
T2 construct: host or cells: HT-29 cells
T2 sequence (P55085 26-397): T1 sequence (P55085 26-397)
The experiment in a line: Ca FLIPR TETRA assay, ANTAGONIST mode, stimulation with 8 μM SLIGKV. In kind it is cell-based. As to conditions: HT-29 cells, antagonist mode, stimulation with 8 μM SLIGKV. In short, it runs like this: as §1

For `CC(C)c1cc(-c2ccc(F)cc2)nn2cc(C(=O)N3CCN(C(=O)c4ccccn4)CC3(C)C)nc12` [Compound I-320], the IC50 in test [1] is over 1000 nM; in test [2], over 1000 nM; in test [3], 14.2 nM; in test [4] it was 7.1 nM.
Consider `CC(C)c1cc(-c2ccc(F)cc2)nn2cc(C(=O)N3CCN(C(=O)c4ccon4)CC3(C)C)nc12` [Compound I-321], for which the IC50 in test [1] was over 1000 nM; in test [2], over 1000 nM; in test [3], 2.8 nM; in test [4], 1.5 nM.
For the molecule `CC(C)c1cc(-c2ccc(F)cc2)nn2cc(C(=O)N3CCN(C(=O)c4cncnc4)CC3(C)C)nc12` [Compound I-322], the IC50 in test [1] was over 1000 nM; in test [2] it was over 1000 nM; in test [3], 69 nM; in test [4] it was 41.5 nM.
In the case of `CC(C)c1cc(-c2ccc(F)cc2)nn2cc(C(=O)N3CCN(C(=O)c4ncccn4)CC3(C)C)nc12` [Compound I-323], the IC50 was over 1000 nM in test [1], over 1000 nM in test [2], 55.5 nM in test [3] and 20.5 nM in test [4].
As for `Cc1nnc(C(=O)N2CCN(C(=O)c3cn4nc(-c5ccc(F)cc5)cc(C(C)C)c4n3)C(C)(C)C2)o1` [Compound I-324], the 50% inhibitory concentration (IC50) was over 1000 nM in test [1], over 1000 nM in test [2], 22.5 nM in test [3] and 21.1 nM in test [4].
As for `CC(F)(F)c1cc(-c2ccc(F)cc2)nn2cc(C(=O)N3CCNC(=O)C3(C)C)nc12` [Compound I-325], the IC50 in test [1] was over 1000 nM; in test [2] it was over 1000 nM; in test [3] it was 110 nM; in test [4] it was 55.5 nM.
Turning to `CC(C)c1cc(-c2ccc(F)cc2)nn2cc(C(=O)N3CCN(C(=O)c4c[nH]cn4)CC3(C)C)nc12` [Compound I-326], the IC50 in test [1] was over 1000 nM; in test [2], over 1000 nM; in test [3], 12 nM; in test [4], 17 nM.
As for `CC(C)c1cc(-c2ccc(F)cc2)nn2cc(C(=O)N3CCN(C(=O)c4cn[nH]c4)CC3(C)C)nc12` [Compound I-327], the IC50 in test [1] is over 1000 nM; in test [2] it was over 1000 nM; in test [3] it was 5.9 nM; in test [4], 5.6 nM.
As to `Cc1cc(-c2cc(C(C)(C)C)c3nc(C(=O)N4CCNC(=O)C4(C)C)cn3n2)ccc1F` [Compound I-329], the half-inhibitory concentration (IC50) in test [1] was over 1000 nM; in test [2], over 1000 nM; in test [3], 2.8 nM; in test [4], 5.9 nM.
Consider `Cc1ccc(-c2cc(C(C)C)c3nc(C(=O)N4CCN(C(=O)c5cc(C)n[nH]5)CC4(C)C)cn3n2)cc1` [Compound I-330], for which the IC50 in test [1] is over 1000 nM; in test [2], over 1000 nM; in test [3], 1.4 nM; in test [4], 1.7 nM.
For the molecule `Cc1ccc(-c2cc(C(C)C)c3nc(C(=O)N4CCN(C(=O)c5nc[nH]n5)CC4(C)C)cn3n2)cc1` [Compound I-331], the IC50 in test [1] is over 1000 nM; in test [2], over 1000 nM; in test [3] it was 6.9 nM; in test [4], 11.4 nM.
For `Cc1ccc(-c2cc(C(C)C)c3nc(C(=O)N4CCN(C(=O)c5nnc(C)o5)CC4(C)C)cn3n2)cc1` [Compound I-332], the IC50 was over 1000 nM in test [1], over 1000 nM in test [2], 11.5 nM in test [3] and 13.3 nM in test [4].
Take `Cc1ccc(-c2cc(C(C)C)c3nc(C(=O)N4CCN(C(=O)C5CC(C)(O)C5)CC4(C)C)cn3n2)cc1` (centres unmarked) [Compound I-333]: the IC50 in test [1] is over 1000 nM; in test [2] it was over 1000 nM; in test [3] it was 3.8 nM; in test [4], 3.2 nM.
As for `Cc1ccc(-c2cc(C(C)C)c3nc(C(=O)N4CCN(C(=O)c5nc(C)n[nH]5)CC4(C)C)cn3n2)cc1` [Compound I-334], the IC50 was over 1000 nM in test [1], over 1000 nM in test [2], 4.8 nM in test [3] and 4.6 nM in test [4].
As for `Cc1cc(C(=O)N2CCN(C(=O)c3cn4nc(-c5ccc(C)c(F)c5)cc(C(C)C)c4n3)C(C)(C)C2)[nH]n1` [Compound I-335], the 50% inhibitory concentration (IC50) was over 1000 nM in test [1], over 1000 nM in test [2], 0.6 nM in test [3] and 0.8 nM in test [4].
Regarding `Cc1ccc(-c2cc(C(C)C)c3nc(C(=O)N4CCN(C(=O)c5nc[nH]n5)CC4(C)C)cn3n2)cc1F` [Compound I-336], the concentration for half-maximal inhibition (IC50) in test [1] was over 1000 nM; in test [2] it was over 1000 nM; in test [3], 2.8 nM; in test [4], 5 nM.
On to `Cc1nnc(C(=O)N2CCN(C(=O)c3cn4nc(-c5ccc(C)c(F)c5)cc(C(C)C)c4n3)C(C)(C)C2)o1` [Compound I-337], for which the concentration for half-maximal inhibition (IC50) in test [1] is over 1000 nM; in test [2], over 1000 nM; in test [3], 4.5 nM; in test [4] it was 5.4 nM.
For `Cc1ccc(-c2cc(C(C)C)c3nc(C(=O)N4CCN(C(=O)C5CC(C)(O)C5)CC4(C)C)cn3n2)cc1F` (centres unmarked) [Compound I-338], the half-inhibitory concentration (IC50) in test [1] is over 1000 nM; in test [2], over 1000 nM; in test [3], 1.6 nM; in test [4] it was 2.2 nM.
Take `Cc1n[nH]c(C(=O)N2CCN(C(=O)c3cn4nc(-c5ccc(C)c(F)c5)cc(C(C)C)c4n3)C(C)(C)C2)n1` [Compound I-339]: the concentration for half-maximal inhibition (IC50) was over 1000 nM in test [1], over 1000 nM in test [2], 1.9 nM in test [3] and 1.9 nM in test [4].
For `Cc1c[nH]c(C(=O)N2CCN(C(=O)c3cn4nc(-c5ccc(F)cc5)cc(C(C)(C)C)c4n3)C(C)(C)C2)n1` [Compound I-340], the IC50 was over 1000 nM in test [1], over 1000 nM in test [2], 1.6 nM in test [3] and 1.5 nM in test [4].
With `Cc1cc(C(=O)N2CCN(C(=O)c3cn4nc(-c5ccc(F)c(C)c5)cc(C(C)C)c4n3)C(C)(C)C2)[nH]n1` [Compound I-341], the half-inhibitory concentration (IC50) in test [1] was over 1000 nM; in test [2], over 1000 nM; in test [3] it was 1.7 nM; in test [4] it was 2.1 nM.
Consider `Cc1cc(-c2cc(C(C)C)c3nc(C(=O)N4CCN(C(=O)c5nc[nH]n5)CC4(C)C)cn3n2)ccc1F` [Compound I-342], for which the IC50 in test [1] was over 1000 nM; in test [2], over 1000 nM; in test [3] it was 8.2 nM; in test [4], 12.6 nM.
As for `Cc1nnc(C(=O)N2CCN(C(=O)c3cn4nc(-c5ccc(F)c(C)c5)cc(C(C)C)c4n3)C(C)(C)C2)o1` [Compound I-344], the IC50 in test [1] is over 1000 nM; in test [2], over 1000 nM; in test [3], 15.8 nM; in test [4] it was 15.4 nM.
On to `Cc1n[nH]c(C(=O)N2CCN(C(=O)c3cn4nc(-c5ccc(F)c(C)c5)cc(C(C)C)c4n3)C(C)(C)C2)n1` [Compound I-345], for which the IC50 was over 1000 nM in test [1], over 1000 nM in test [2], 6.2 nM in test [3] and 5.6 nM in test [4].
For the molecule `Cc1ccc(-c2cc(C(C)(C)C)c3nc(C(=O)N4CCNC(=O)C4(C)C)cn3n2)cc1` [Compound I-347], the IC50 was over 1000 nM in test [1], over 1000 nM in test [2], 2.3 nM in test [3] and 2.9 nM in test [4].
In the case of `CC(C)(C)c1cc(-c2ccccc2)nn2cc(C(=O)N3CCNC(=O)C3(C)C)nc12` [Compound I-348], the IC50 was 673 nM in test [1], 360 nM in test [2], 5.1 nM in test [3] and 4 nM in test [4].
Regarding `CC(C)(C)c1cc(-c2ccc(C(F)F)cc2)nn2cc(C(=O)N3CCNC(=O)C3(C)C)nc12` [Compound I-349], the IC50 in test [1] is over 1000 nM; in test [2] it was over 1000 nM; in test [3], 2.6 nM; in test [4] it was 3 nM.
For the molecule `Cc1cccc(-c2cc(C(C)(C)C)c3nc(C(=O)N4CCNC(=O)C4(C)C)cn3n2)c1` [Compound I-350], the IC50 is over 1000 nM in test [1], over 1000 nM in test [2], 13.7 nM in test [3] and 12.9 nM in test [4].
As for `CC(C)(C)c1cc(-c2ccc(F)c(F)c2)nn2cc(C(=O)N3CCNC(=O)C3(C)C)nc12` [Compound I-352], the IC50 in test [1] is over 1000 nM; in test [2] it was over 1000 nM; in test [3], 1.5 nM; in test [4], 1.2 nM.
In the case of `CC(C)c1cc(-c2ccc(Cl)cc2)nn2cc(C(=O)N3CCNC(=O)C3(C)C)nc12` [Compound I-353], the IC50 in test [1] is over 1000 nM; in test [2] it was over 1000 nM; in test [3], 3 nM; in test [4], 2.4 nM.
On to `CC(C)c1cc(-c2ccc(Cl)c(F)c2)nn2cc(C(=O)N3CCNC(=O)C3(C)C)nc12` [Compound I-354], for which the IC50 in test [1] is over 1000 nM; in test [2], over 1000 nM; in test [3], 1.3 nM; in test [4] it was 1.2 nM.
With `Cc1cc(C(=O)N2CCN(C(=O)c3cn4nc(-c5ccc(F)cc5)cc(C(C)(F)F)c4n3)C(C)(C)C2)[nH]n1` [Compound I-355], the half-maximal inhibitory concentration (IC50) in test [1] is over 1000 nM; in test [2] it was over 1000 nM; in test [3] it was 7 nM; in test [4], 9.6 nM.
